Active and inactive are the calls of the source. How the calls were made is not given here.
Tested on: GENE-TOX genotoxicity assays, various organisms and cells
Assay: GENE-TOX mutagenicity studies
Conditions: for call: Species/Cell Type: Nonhuman, Assay Type: In vivo carcinogenicity studies
[1] = Species/Cell Type: Drosophila melanogaster, Assay Type: Sex-linked recessive lethal gene mutation, Assay Code: SRL+, Evaluation Type: Evaluation A (Pre-1980)
[2] = Species/Cell Type: Human diploid fibroblasts, Assay Type: Unscheduled DNA synthesis (UDS) in vitro, DNA effects, Assay Code: UDH-, Evaluation Type: Evaluation A (Pre-1980)
[3] = Assay Code: CCGT, Evaluation Type: Evaluation A (Pre-1980)
[4] = Species/Cell Type: Saccharomyces cerevisiae, Assay Type: Mitotic recombination or gene conversion, Assay Code: YEC+, Evaluation Type: Evaluation A (Pre-1980)
[5] = Species/Cell Type: Saccharomyces cerevisiae, Assay Type: Reverse gene mutation, Assay Code: YER+*, Activation: With metabolic activation, Evaluation Type: Evaluation A (Pre-1980)
[6] = Species/Cell Type: Salmonella typhimurium (one or more of the five standard strains: TA98, TA100, TA1535, TA1537, and TA1538), Assay Type: Histidine reverse gene mutation, Ames assay, Assay Code: SAL+, Evaluation Type: Evaluation A (Pre-1980)
[7] = Species/Cell Type: Tradescantia species, Assay Type: Chromosome aberrations, Assay Code: TRC+D, Dose Response: With dose response, Evaluation Type: Evaluation A (Pre-1980)
[8] = Species/Cell Type: Saccharomyces cerevisiae, Assay Type: Mitotic recombination or gene conversion, Assay Code: YEH-, Evaluation Type: Evaluation A (Pre-1980)
[9] = Species/Cell Type: Salmonella typhimurium (one or more of the five standard strains: TA98, TA100, TA1535, TA1537, and TA1538), Assay Type: Histidine reverse gene mutation, Ames assay, Assay Code: SAL-, Evaluation Type: Evaluation A (Pre-1980)
[10] = Species/Cell Type: Allium cepa, Assay Type: Chromosome aberrations, Assay Code: ALC+D, Dose Response: With dose response, Evaluation Type: Evaluation A (Pre-1980)
[11] = Species/Cell Type: Drosophila melanogaster, Assay Type: Sex-linked recessive lethal gene mutation, Assay Code: SRLT, Evaluation Type: Evaluation A (Pre-1980)
[12] = Assay Code: CCG+L, Evaluation Type: Evaluation A (Pre-1980)
[13] = Species/Cell Type: Salmonella typhimurium (one or more of the five standard strains: TA98, TA100, TA1535, TA1537, and TA1538), Assay Type: Histidine reverse gene mutation, Ames assay, Assay Code: SAL+*, Activation: With metabolic activation, Evaluation Type: Evaluation A (Pre-1980)
[14] = Species/Cell Type: Escherichia coli polA (W3119 vs P3478), Assay Type: Rec-assay, DNA effects (bacterial DNA repair), Assay Code: RE1+, Evaluation Type: Evaluation A (Pre-1980)
[15] = Species/Cell Type: Human, Assay Type: Sister-chromatid exchange (SCE) in vitro, Assay Code: SC1T, Evaluation Type: Evaluation B (Post-1980)
[16] = Species/Cell Type: Mammalian polychromatic erythrocytes, Assay Type: Micronucleus test, chromosome aberrations, Assay Code: MNT+, Evaluation Type: Evaluation B (Post-1980)
[17] = Species/Cell Type: Human lymphocytes, Assay Type: Sister-chromatid exchange (SCE) in vitro, Assay Code: SCLT, Evaluation Type: Evaluation B (Post-1980)
[18] = Species/Cell Type: Saccharomyces cerevisiae, Assay Type: Mitotic recombination or gene conversion, Assay Code: YEC-, Evaluation Type: Evaluation A (Pre-1980)

[N-]=[N+]=[N-]
mutagenic call (Species/Cell Type: Arabidopsis species, Assay Type: Gene mutation, Assay Code: ARMT, Evaluation Type: Evaluation A (Pre-1980)): no conclusion | mutagenic call [1]: active; positive | mutagenic call (Species/Cell Type: Escherichia coli WP2, Assay Type: Tryptophan reverse gene mutation, Assay Code: WP2T, Evaluation Type: Evaluation A (Pre-1980)): no conclusion | mutagenic call (Species/Cell Type: Escherichia coli WP2 UVRA, Assay Type: Tryptophan reverse gene mutation, Assay Code: WPU-, Evaluation Type: Evaluation A (Pre-1980)): inactive; negative | mutagenic call (Species/Cell Type: Glycine max (soybean), Assay Type: Gene mutation, Assay Code: GLM+, Evaluation Type: Evaluation A (Pre-1980)): active; positive | mutagenic call (Species/Cell Type: Hordeum vulgare (barley), Assay Type: Gene mutation, Assay Code: HOM+, Evaluation Type: Evaluation A (Pre-1980)): active; positive | mutagenic call [2]: inactive; negative | mutagenic call (Species/Cell Type: Human lymphocytes or leukocytes, Assay Type: Chromosome aberrations in vitro, Assay Code: CY7-, Evaluation Type: Evaluation A (Pre-1980)): inactive; negative | mutagenic call (Species/Cell Type: Human lymphocytes, Assay Type: Sister-chromatid exchange (SCE) in vitro, Assay Code: SCL+, Evaluation Type: Evaluation B (Post-1980)): active; positive | mutagenic call (Species/Cell Type: Human, Assay Type: Sister-chromatid exchange (SCE) in vitro, Assay Code: SC1+, Evaluation Type: Evaluation B (Post-1980)): active; positive | mutagenic call (Species/Cell Type: Mouse lymphoma (L5178Y) cells, Assay Type: Forward gene mutation at the thymidine kinase (TK) locus, chromosome aberrations, Assay Code: L51+, Evaluation Type: Evaluation A (Pre-1980)): active; positive | mutagenic call (Species/Cell Type: Mouse, Sex: Male, Assay Type: Sperm morphology, Assay Code: SPI-, Evaluation Type: Evaluation A (Pre-1980)): inactive; negative | call [3]: no conclusion | mutagenic call (Species/Cell Type: Saccharomyces cerevisiae, Assay Type: Forward gene mutation, Assay Code: YEF+, Evaluation Type: Evaluation A (Pre-1980)): active; positive | mutagenic call [4]: active; positive | mutagenic call [5]: active; positive | mutagenic call [6]: active; positive | mutagenic call [7]: active; positive | mutagenic call (Species/Cell Type: Tradescantia species, Assay Type: Gene mutation, Assay Code: TRM+D, Dose Response: With dose response, Evaluation Type: Evaluation A (Pre-1980)): active; positive | mutagenic call (Species/Cell Type: Zea mays (corn), Assay Type: Gene mutation, Assay Code: ZEM+D, Dose Response: With dose response, Evaluation Type: Evaluation A (Pre-1980)): active; positive

Cc1ccc(Cl)cc1
mutagenic call [8]: inactive; negative | mutagenic call [9]: inactive; negative

ClC1C(Cl)C(Cl)C(Cl)C(Cl)C1Cl (stereo not drawn)
mutagenic call [10]: active; positive | mutagenic call [11]: no conclusion | mutagenic call (Species/Cell Type: Hordeum vulgare (barley), Assay Type: Chromosome aberrations, Assay Code: HOC+D, Dose Response: With dose response, Evaluation Type: Evaluation A (Pre-1980)): active; positive | call [12]: active; positive | mutagenic call [4]: active; positive | mutagenic call (Species/Cell Type: Saccharomyces cerevisiae, Assay Type: Reverse gene mutation, Assay Code: YER-*, Activation: With metabolic activation, Evaluation Type: Evaluation A (Pre-1980)): inactive; negative | mutagenic call (Species/Cell Type: Salmonella typhimurium, Serratia marcesens, Assay Type: Forward and reverse gene mutation, host-mediated assay, Assay Code: HM2T, Evaluation Type: Evaluation A (Pre-1980)): no conclusion | mutagenic call [7]: active; positive | mutagenic call (Species/Cell Type: Vicia faba, Assay Type: Chromosome aberrations, Assay Code: VIC+D, Dose Response: With dose response, Evaluation Type: Evaluation A (Pre-1980)): active; positive

CC(=O)Nc1ccc(-c2ccccc2)cc1
mutagenic call [2]: inactive; negative

Cc1cc(NC(=O)C2=C(O)c3ccccc3S(=O)(=O)N2C)no1
mutagenic call (Species/Cell Type: Human lymphocytes, Assay Type: Sister-chromatid exchange (SCE) in vivo, Assay Code: SCY+, Evaluation Type: Evaluation B (Post-1980)): active; positive

Cc1c2ccccc2c(CO)c2ccc3ccccc3c12
mutagenic call (Species/Cell Type: Chinese hamster lung (V79) cells, Assay Type: Forward gene mutation at the HPRT or ouabain locus, Assay Code: V79+, Evaluation Type: Evaluation A (Pre-1980)): active; positive | mutagenic call (Species/Cell Type: Escherichia coli polA (W3110 vs P3478), Assay Type: Rec-assay, DNA effects (bacterial DNA repair), Assay Code: RE2+, Evaluation Type: Evaluation A (Pre-1980)): active; positive | mutagenic call (Species/Cell Type: Escherichia coli polA (W3119 vs P3478), Assay Type: Rec-assay, DNA effects (bacterial DNA repair), Assay Code: RE1T, Evaluation Type: Evaluation A (Pre-1980)): no conclusion | call (Assay Code: CCG+, Evaluation Type: Evaluation A (Pre-1980)): active; positive | mutagenic call [8]: inactive; negative | mutagenic call [13]: active; positive | mutagenic call (Species/Cell Type: Salmonella typhimurium, Assay Type: Forward and reverse gene mutation, host-mediated assay, Assay Code: HMA-, Evaluation Type: Evaluation A (Pre-1980)): inactive; negative

COc1c(Cl)ccc(Cl)c1C(=O)O
mutagenic call (Species/Cell Type: Bacillus subtilis (H17 vs M45), Assay Type: Rec-assay, spot test, DNA effects (bacterial DNA repair), Assay Code: REW+, Evaluation Type: Evaluation A (Pre-1980)): active; positive | mutagenic call [11]: no conclusion | mutagenic call [14]: active; positive | mutagenic call (Species/Cell Type: Hordeum vulgare (barley), Assay Type: Chromosome aberrations, Assay Code: HOC+, Evaluation Type: Evaluation A (Pre-1980)): active; positive | mutagenic call [2]: inactive; negative | mutagenic call [8]: inactive; negative | mutagenic call [9]: inactive; negative

CCCOC(=O)c1cc(O)c(O)c(O)c1
mutagenic call [15]: no conclusion

CS/C(C)=N/OC(=O)N(C)N=O
mutagenic call [6]: active; positive

COC(=O)N/N=C/c1c[n+]([O-])c2ccccc2[n+]1[O-]
mutagenic call [16]: active; positive

NC(=O)N1c2ccccc2C=Cc2cc(O)ccc21
mutagenic call [17]: no conclusion | mutagenic call [15]: no conclusion

BrC(Br)C(Br)Br
mutagenic call [14]: active; positive

C#CC(C)OC(=O)Nc1cccc(Cl)c1 (stereo not drawn) (tested in a mixture with another compound)
mutagenic call [18]: inactive; negative

Cc1c2c(c(C)c3c1ccc1ccccc13)[C@H](O)[C@@H](O)C=C2
call [3]: no conclusion

Oc1cccc2cc3ccc4cccc5ccc(c12)c3c45
call [3]: no conclusion | mutagenic call (Species/Cell Type: Salmonella typhimurium (one or more of the five standard strains: TA98, TA100, TA1535, TA1537, and TA1538), Assay Type: Histidine reverse gene mutation, Ames assay, Assay Code: SALT, Evaluation Type: Evaluation A (Pre-1980)): no conclusion

O=C1OC2(c3ccccc31)c1cc(I)c(O)c(I)c1Oc1c2cc(I)c(O)c1I
mutagenic call (Species/Cell Type: Bacillus subtilis (H17 vs M45), Assay Type: Rec-assay, spot test, DNA effects (bacterial DNA repair), Assay Code: REW-, Evaluation Type: Evaluation A (Pre-1980)): inactive; negative | mutagenic call (Species/Cell Type: Bacillus subtilis (H17 vs M45T), Assay Type: Rec-assay, spot test, DNA effects (bacterial DNA repair), Assay Code: REXT, Evaluation Type: Evaluation A (Pre-1980)): no conclusion | mutagenic call [16]: active; positive | mutagenic call [18]: inactive; negative | mutagenic call [9]: inactive; negative

CC(CCC(C)OS(C)(=O)=O)OS(C)(=O)=O (stereo not drawn)
mutagenic call [1]: active; positive

O=NN1CCCCC1C(=O)O (stereo not drawn)
mutagenic call [11]: no conclusion

CCc1ccccc1O
mutagenic call [17]: no conclusion | mutagenic call [15]: no conclusion

CC1CCCN(N=O)C1 (stereo not drawn)
mutagenic call [1]: active; positive | call [12]: active; positive | mutagenic call (Species/Cell Type: Saccharomyces cerevisiae, Assay Type: Forward gene mutation, Assay Code: YEF+*, Activation: With metabolic activation, Evaluation Type: Evaluation A (Pre-1980)): active; positive | mutagenic call [5]: active; positive | mutagenic call [13]: active; positive

CCCCC[CH2][Hg][Br]
mutagenic call [10]: active; positive

CN(C)Cc1cc(Br)ccc1OCC(=O)N/N=C/c1ccccc1
mutagenic call (Species/Cell Type: Saccharomyces cerevisiae, Assay Type: Reverse gene mutation, Assay Code: YERT, Evaluation Type: Evaluation A (Pre-1980)): no conclusion
